Numbers after ± are expanded uncertainties.
Legend:
[1] = refractive index (Na D-line) (dimensionless); conditions: 303.1 K; 101.33 kPa; Liquid; Standard Abbe refractometry

CN(CCO)CCO [N-methyldiethanolamine]
refractive index [1]: 1.46008 ± 0.00051
mass density (298.1 K, 101.33 kPa, Liquid, Vibrating tube method): 1038.11 ± 0.92 kg/m3
viscosity (298.15 K, 101.33 kPa, Liquid, Capillary tube (Ostwald / Ubbelohde) method): 77.09 ± 1.8 mPa·s
surface tension liquid-gas (303.15 K, Pendant drop shape): 38.26 ± 0.53 mN/m

From the NIST ThermoML archive (doi:10.1021/je2008523)
